As a reminder, the IC50 is the concentration needed to halve the response being measured.

Molecules are shown by their SMILES. Bounds are passed on as bounds.

1 compound from publication PMC4490784, “Compensatory induction of MYC expression by sustained CDK9 inhibition via a BRD4-dependent mechanism” (eLife, 2015) can be followed below.

For one assay, the target named is T1, PKNB(M.tuberculosis) (Mycobacterium tuberculosis, UniProt P9WI81).
T1 construct: purchased DiscoveRx KINOMEscan
The experiment in a line: KINOMEscan binding assay. As to conditions: 1 µM i-CDK9; read-out: % Retention on Solid Support.

For assay [1], the system named is MYC protein in HeLa cells. Briefly: Immunoblotting of MYC protein in HeLa cell lysates. In kind it is cell-based, human. On the procedure: Figure 3. Induction of MYC mRNA production in response to sustained inhibition of CDK9 by i-CDK9 and the requirement of MYC's natural genomic structure in this process. (A) The indicated tumor cell lines were treated with i-CDK9 (0.5 μM) for 2–16 hr and the MYC mRNA levels, which were divided by those in the DMSO-treated cells and averaged from three independent replicates of DNA microarray analysis, were shown as log2 values. (B) HeLa cells were treated with the indicated concentrations of i-CDK9 for 8 hr and the various proteins in the total cell lysates were detected by immunoblotting as indicated. Quantifications of the levels of MYC protein and Ser2-phosphoryalted Pol II (pSer2) in the lysates were shown above and below the immunoblots, respectively. […] The levels of the indicated proteins were examined by immunoblotting. (G) A HeLa-based cell line containing the stably transfected, doxycycline (Dox)-inducible MYC-F-expressing plasmid driven by the CMV promoter was pretreated with (+) or without (−) Dox prior to incubation with i-CDK9 or DMSO. MYC and MYC-F expressed from the endogenous MYC locus and the transfected plasmid, respectively, were detected by immunoblotting. DOI: http://dx.doi.org/10.7554/eLife.06535.007 Figure 3—figure supplement 1. Biphasic response of MYC mRNA production throughout the course of CDK9 inhibition by i-CDK9. DOI: http://dx.doi.org/10.7554/eLife.06535.008 [drawing 2] Figure 3—Figure supplement 2. […] DOI: http://dx.doi.org/10.7554/eLife.06535.009 [drawing 3] TEXT PRINTED IN THE PICTURE: (B) i-CDK9: Fold increase in MYC protein: 1.0 (i-CDK9 (μM): 0); Fold increase in MYC protein: 1.2 (i-CDK9 (μM): 0.01); Fold increase in MYC protein: 1.7 (i-CDK9 (μM): 0.03); Fold increase in MYC protein: 3.6 (i-CDK9 (μM): 0.1); Fold increase in MYC protein: 5.2 (i-CDK9 (μM): 0.3); Fold increase in MYC protein: 5.5 (i-CDK9 (μM): 1.0) | (C) i-CDK9: Fold increase in MYC protein: 1.0 (0.3 μM i-CDK9 (h): 0); Fold increase in MYC protein: 0.9 (0.3 μM i-CDK9 (h): 1); Fold increase in MYC protein: 1.1 (0.3 μM i-CDK9 (h): 2); Fold increase in MYC protein: 1.2 (0.3 μM i-CDK9 (h): 4); Fold increase in MYC protein: 3.3 (0.3 μM i-CDK9 (h): 8)
First, the induction of MYC protein level was confirmed in HeLa cells treated with i-CDK9. […] It took 1.0 µM i-CDK9 to cause up to 85% reduction in pSer2. In a separate time-course analysis, the 8-hr incubation with i-CDK9 (0.3 μM) induced the MYC level by 3.3-fold, whereas the same condition reduced the pSer2 level by only 40% (Figure 3C). Thus, MYC expression was highly responsive to i-CDK9 treatment and occurred at a time point earlier and drug concentration lower than those required to achieve a significant suppression of Ser2 phosphorylation on the Pol II CTD.
On the technique in general: A western blot detects proteins with antibodies after separation by electrophoresis.

The subject of another assay is HeLa cells. The experiment in a line: Immunoblotting of MCL-1 and PARP in HeLa cell lysates. As to conditions: 8 hr. In kind it is cell-based, human. How it is done:
Figure 1. i-CDK9 is a potent and selective CDK9 inhibitor that elicits cellular responses indicative of P-TEFb inhibition. (A and B) Structures and selectivity profiles of i-CDK9 (A) and falvopiridol (B). […] (C) In vitro kinase reactions containing affinity-purified CDK9-F-CycT or CDK12-F-CycK and GST-CTD as a substrate were conducted in the presence of the indicated concentrations of i-CDK9. pSer2 and the Flag-tagged kinase in each reaction were detected by Western blotting with anti-pSer2 and anti-Flag antibodies, respectively. (D) HeLa cells were treated for 8 hr with DMSO or the indicated concentrations of i-CDK9. Total cell lysates were examined by immunoblotting for the proteins labeled on the left. DOI: http://dx.doi.org/10.7554/eLife.06535.003 Figure 1—source data 1. Selectivity profile of i-CDK9. DOI: http://dx.doi.org/10.7554/eLife.06535.004 Figure 1—figure supplement 1. Recombinant CDK12-CycK is less sensitive to inhibition by i-CDK9.
Inhibition of phosphorylation of both Pol II CTD and SPT5 is expected to block transcriptional elongation, which will effectively decrease the production of labile proteins from short-lived transcripts.

Assay [2] addresses JAK2(JH1domain-catalytic) (Homo sapiens, UniProt O60674). The experiment in a line: biochemical binding or enzymatic assay. More on the design: JAK2(JH1domain-catalytic). The note with it: Novartis. How it is done:
Finally, the selectivity profile of i-CDK9 toward other non-CDK kinases was also assessed using the KINOMEscan platform. […] Except for CLK4, for which no suitable assay was available, the rest of the kinases plus a selected group of others were re-examined for the concentration-dependent effect of i-CDK9 in either functional kinase assays or binding assays. […] Indeed, it has recently been reported that DYRK1A acts as a Pol II CTD Kinase at its target gene promoters ([Di Vona et al., 2015]).

JAK2(JH1domain-catalytic), sequence (O60674 849-1124 limits assumed): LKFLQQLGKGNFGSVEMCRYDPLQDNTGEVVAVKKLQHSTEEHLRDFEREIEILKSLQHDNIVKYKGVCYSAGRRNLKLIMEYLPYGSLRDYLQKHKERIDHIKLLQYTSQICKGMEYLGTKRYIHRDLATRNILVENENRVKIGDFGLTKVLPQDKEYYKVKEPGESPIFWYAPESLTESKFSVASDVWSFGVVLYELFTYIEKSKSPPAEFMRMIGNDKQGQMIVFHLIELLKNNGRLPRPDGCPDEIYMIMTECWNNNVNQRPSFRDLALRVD
T1 sequence (P9WI81 whole entry): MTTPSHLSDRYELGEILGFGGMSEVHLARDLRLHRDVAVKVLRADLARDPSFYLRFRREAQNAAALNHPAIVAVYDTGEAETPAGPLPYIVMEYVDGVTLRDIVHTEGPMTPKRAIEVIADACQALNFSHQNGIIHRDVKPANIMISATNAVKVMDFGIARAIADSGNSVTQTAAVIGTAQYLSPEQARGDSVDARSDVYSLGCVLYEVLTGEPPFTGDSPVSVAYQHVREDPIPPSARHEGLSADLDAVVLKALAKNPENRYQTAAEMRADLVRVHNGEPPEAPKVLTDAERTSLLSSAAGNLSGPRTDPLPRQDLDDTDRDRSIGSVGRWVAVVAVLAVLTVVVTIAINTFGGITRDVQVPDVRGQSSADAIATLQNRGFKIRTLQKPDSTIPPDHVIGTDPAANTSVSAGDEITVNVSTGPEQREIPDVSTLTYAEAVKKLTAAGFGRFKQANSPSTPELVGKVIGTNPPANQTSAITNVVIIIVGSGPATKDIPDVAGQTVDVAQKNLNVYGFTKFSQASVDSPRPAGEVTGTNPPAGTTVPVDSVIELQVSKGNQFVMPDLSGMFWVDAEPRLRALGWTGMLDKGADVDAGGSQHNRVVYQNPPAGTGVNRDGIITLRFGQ

With `N[C@H]1CC[C@H](Nc2cc(-c3cccc(NCc4cccc(F)c4)n3)c(Cl)cn2)CC1` [i-CDK9, N2′-(trans-4-aminocyclohexyl)-5′-chloro-N6-(3-fluorobenzyl)-2,4′-bipyridine-2′,6-diamine], the remaining binding at 1 µM on PKNB(M.tuberculosis) was determined as 100%. Besides, the “Fold increase in MYC protein” value in assay [1] (0.01 μM, 8 hr) was 1.2 fold; in assay [1] (0.03 μM, 8 hr), 1.7 fold; in assay [1] (0.1 μM, 8 hr), 3.6 fold; in assay [1] (0.3 μM, 1 h (time course)) it was 0.9 fold; in assay [1] (0.3 μM, 2 h (time course)), 1.1 fold; in assay [1] (0.3 μM, 4 h (time course)), 1.2 fold. The “Fold increase in MYC protein” value is recorded as 3.3 fold in assay [1] (0.3 μM, 8 h (time course)); 5.2 fold in assay [1] (0.3 μM, 8 hr (dose series)); 5.5 fold in assay [1] (1.0 μM, 8 hr). Besides, in assay [1] (2 μM added at time zero), the MYC induction entry is listed as “No MYC induction”. The “cleavage of PARP” value in the assay on HeLa cells was “induced proteolytic cleavage”. For the same compound, the “expression of MCL-1” value in the assay with HeLa cells is “markedly down-regulated”. The IC50 in assay [2] was more than 10 µM.
